Laboratory results: PMC7932537, “Quantitative profiling of protease specificity” (PLoS Computational Biology, 2021)

What was measured:
MMP-9 = assay: N-terminomic (TMT) analysis of MMP-treated HEK293 secretome: isotopic enrichment of novel N-termini; assay type: biochemical, human; conditions: for isotopic enrichment (log2(ratio)) (acc.to MMP9): HEK293 proteins; for isotopic enrichment (log2(ratio)): MMP9 cleavages in HEK293 cell proteins, determined by LC-MS/MS, log2(ratio) range (>3σ, 2σ-3σ, 1σ-2σ)
Experimental: (§1) This was done to achieve a reasonable compromise between the false positive and false negative rates based on the statistical model developed by the authors. […] (See Methods for details).
(§2) HEK293 cells were seeded in 150-mm tissue culture dishes (Corning) and grown to confluence. The confluent cultures were washed with PBS several times to remove serum proteins and kept in serum-free DMEM supplemented with 1 μM GM6001 for 72 hours at 37 C, 5% CO2. The conditioned media was centrifuged at 10,000 x g for 30 minutes at 4 C and concentrated ~100-fold using Centricon Plus-70 (AMD Millipore) 3-kDa m.w. cut-off ultrafilter, and the buffer was exchanged to 50 mM HEPES pH 7.0 containing 150 mM NaCl and 10 mM CaCl2 (Reaction Buffer) using a PD-10 desalting column (GE Healthcare). Aliquots containing 240 μg total protein were incubated at 37 C in the presence of 750 nM MMP2 or 9 or the Reaction Buffer alone for 2 hours. Each reaction was carried out in duplicate. The reactions were stopped by addition of 20 mM EDTA and subjected to denaturation/reduction (4M Urea and 10 mM TCEP, 1 h, 22°C) and alkylation (20 mM iodoacetamide, 30 min, 22°C, in dark). […] The TMT-labeled samples were pooled together, and subjected to TCA precipitation (20% TCA, 16 h, 4°C). Each pellet was washed with -20°C acetone, recovered in 50 mM Tris-HCl pH 8.0, and then digested with trypsin/Lys-C (Promega) for 16 h at 37°C. Digestions were stopped with 0.2% TFA and centrifuged to remove insoluble material. The supernatants were then desalted using Sep-Pak C18 cartridge (50 mg), and then lyophilized.
(§3) Dried pooled sample was reconstituted in 20 mM ammonium formate pH ~10 and fractionated using a Waters Acquity BEH C18 column (2.1x 15 cm, 1.7 μm pore size) mounted on an M-Class Ultra Performance Liquid Chromatography (UPLC) system (Waters). […] A total of 32 fractions were collected and pooled in a non-contiguous manner into 16 total fractions. Pooled fractions were dried to completeness in a SpeedVac concentrator prior to mass spectrometry analysis.
(§4) Dried peptide fractions were reconstituted with 2% ACN-0.1% FA and analyzed by LC-MS/MS using a Proxeon EASY nanoLC system (Thermo Fisher Scientific) coupled to a Q-Exactive Plus mass spectrometer (Thermo Fisher Scientific). […] The mass spectrometer was operated in positive data-dependent acquisition mode. MS1 spectra were measured with a resolution of 70,000 (AGC target: 1e6; mass range: 350–1700 m/z).
(§5) The false discovery rate (FDR) filter for spectrum and protein identification was set to 1%. Carbamidomethylation of cysteines was searched as a fixed modification, while oxidation of methionines and N-terminal acetylation were searched as variable modifications. Enzyme was set to trypsin in a semispecific mode and a maximum of two missed cleavages was allowed for searching. To obtain quantification of the TMT-labeled N-termini, two independent searches were performed–one with TMT10plex MS2 N-terminal reporter quantification and the other for quantification of N-terminal and lysine sidechain.

MMP-2 = assay: as above; assay type: biochemical, human; conditions: for isotopic enrichment (log2(ratio)): MMP2 cleavages in HEK293 cell proteins, determined by LC-MS/MS, novel N-termini, sections log2(ratio) >3σ, 2σ-3σ, 1σ-2σ, RP above 4.5
Experimental: as §1, §2, §3, §4, §5

[1] = MMP9, common set of MMP2-9 selectome, LC-MS/MS
[2] = MS detected cleavage sequence, common MMP2-9 selectome
[3] = MMP2 cleaved HEK293 proteins, common set of MMP2-9 selectome, LC-MS/MS
[4] = MS detected cleavage sequence, HEK293 proteins, common MMP2-9 selectome
[5] = MS detected cleavage sequence, unique part of MMP2 selectome
[6] = MS detected cleavage sequence, HEK293 proteins, unique part of MMP2 selectome

Substance	isotopic enrichment (log2(ratio)) (acc.to MMP9) (MMP-9; [1])	isotopic enrichment (log2(ratio)) (MMP-9)	isotopic enrichment (log2(ratio)) (acc.to MMP9) (MMP-9; [2])	isotopic enrichment (log2(ratio)) (acc.to MMP2) (MMP-2; [3])	isotopic enrichment (log2(ratio)) (acc.to MMP2) (MMP-2; [4])	isotopic enrichment (log2(ratio)) (acc.to MMP9) (MMP-9; [5])	isotopic enrichment (log2(ratio)) (acc.to MMP2) (MMP-2; [6])	isotopic enrichment (log2(ratio)) (MMP-2)
GRTLG-LYGKDQ	3.7845	3.7845	3.7845 log2(ratio)	2.467	2.467 log2(ratio)	–	–	–
AGAAA-LSSASS	3.911	3.911	3.911 log2(ratio)	2.491	2.491 log2(ratio)	–	–	–
VTPAN-ASGIND	–	–	–	–	–	1.864 log2(ratio)	0.9486 log2(ratio)	–
FNPLS-LEELGS	–	1.82	1.82 log2(ratio)	–	0.84 log2(ratio)	–	–	–
TRPLA-VEVVTE	4.995	4.995	4.995 log2(ratio)	4.353	4.353 log2(ratio)	–	–	–
LPAMP-MQGGAQ	3.876	3.876	3.876 log2(ratio)	3.329	3.329 log2(ratio)	–	–	–
NFWGA-LSADGY	–	–	–	–	–	0.9855 log2(ratio)	1.683 log2(ratio)	–
GFGRG-LSDKKS	2.021	2.021	2.021 log2(ratio)	1.9486	1.9486 log2(ratio)	–	–	–
ETAIN-ITTYPD	2.536	2.536	2.536 log2(ratio)	1.84	1.84 log2(ratio)	–	–	–
LDVGG-LQETDK	1.718	1.718	1.718 log2(ratio)	3.076	3.076 log2(ratio)	–	–	–
VNPVL-LSGPEA	2.457	2.457	2.457 log2(ratio)	1.599	1.599 log2(ratio)	–	–	–
VLPVN-VTDYCQ	–	3.756	3.756 log2(ratio)	–	0.7225 log2(ratio)	–	–	–
QSPVA-VSQSKP	4.621	4.621	4.621 log2(ratio)	4.031	4.031 log2(ratio)	–	–	–
EEPLN-VGSVAA	3.642	3.642	3.642 log2(ratio)	2.637	2.637 log2(ratio)	–	–	–
LFIGG-LSFETT	–	–	–	–	–	1.4957 log2(ratio)	2.3505 log2(ratio)	–
MPMF-IVNTNV	–	1.66	1.66 log2(ratio)	–	0.8319 log2(ratio)	–	–	–
APPAA-VAAVAG	–	1.731	1.731 log2(ratio)	–	2.4957 log2(ratio)	–	–	–

Substance	isotopic enrichment (log2(ratio)) (acc.to MMP9) (MMP-9; [1])	isotopic enrichment (log2(ratio)) (MMP-9)	isotopic enrichment (log2(ratio)) (acc.to MMP9) (MMP-9; [2])	isotopic enrichment (log2(ratio)) (acc.to MMP2) (MMP-2; [3])	isotopic enrichment (log2(ratio)) (acc.to MMP2) (MMP-2; [4])	isotopic enrichment (log2(ratio)) (acc.to MMP9) (MMP-9; [5])	isotopic enrichment (log2(ratio)) (acc.to MMP2) (MMP-2; [6])	isotopic enrichment (log2(ratio)) (MMP-2)
GMPGE-ISEHEG	2.131	2.131	2.131 log2(ratio)	2.198	2.198 log2(ratio)	–	–	–
ADIAF-LIDGSF	0.8797	–	–	1.124	–	–	–	1.124 log2(ratio)
EAPRP-YSKQVS	1.531	1.531	1.531 log2(ratio)	1.239	1.239 log2(ratio)	–	–	–
SDPLT-LLQADT	2.254	2.254	2.254 log2(ratio)	1.22	2.4906 log2(ratio)	–	–	1.22 log2(ratio)
SSAAA-LSLCEG	0.3785	–	–	1.036	–	–	–	1.036 log2(ratio)
VCPRG-YVTSTD	5.174	5.174	5.174 log2(ratio)	2.108	2.108 log2(ratio)	–	–	–
SYAGS-LAEPYE	0.9635	–	–	1.521	–	–	–	1.521 log2(ratio)
TQQAQ-LAAAAE	–	–	–	–	–	0.8319 log2(ratio)	2.74 log2(ratio)	–
GSPDA-LQNPCY	–	3.536	3.536 log2(ratio)	–	0.926 log2(ratio)	–	–	–
EHPVL-LTEAPL	–	3.462	3.462 log2(ratio)	–	1.599 log2(ratio)	–	–	–
KYIGN-MHGNEA	1.07	–	–	1.124	–	–	–	1.124 log2(ratio)
DMIDN-LLSPDL	–	–	–	–	–	1.029 log2(ratio)	1.245 log2(ratio)	–
ARPNS-MVVEHP	3.297	3.297	3.297 log2(ratio)	2.409	2.409 log2(ratio)	–	–	–
NFLSW-LYNDSP	1.57	1.57	1.57 log2(ratio)	1.971	1.971 log2(ratio)	–	–	–
DAPRA-VFPSIV	1.811	1.811	1.811 log2(ratio)	1.669	1.669 log2(ratio)	–	–	–
RKATP-YTFPGG	1.753	1.753	1.753 log2(ratio)	1.541	1.541 log2(ratio)	–	–	–
GGGSA-LAGGAG	–	–	–	–	–	2.488 log2(ratio)	3.0018 log2(ratio)	–
